The target in one series is Ba/F3-HER2insYVMA cells (Homo sapiens, UniProt P04626, DUP772-775, cells depend on it). Kind of series: Growth inhibitory activity against HER2 exon 20 insertion mutant expressing cell line. The class given is cell-based, mouse. As to conditions: 3 days, CellTiter-Glo 2.0, read-out: HER2ex20insYVMA cell growth inhibitory activity IC50 value. The method, then:
Growth inhibitory activity against the HER2 exon 20 insertion mutant was measured using Ba/F3 cells that were a mouse B lymphocyte precursor cell line, into which a human HER2 exon 20 insertion mutant gene had been introduced. The Ba/F3 cells were maintained in an RPMI-1640 medium (Thermo Fisher Scientific) supplemented with 10% fetal bovine serum (FBS), 100 U/mL penicillin, 100 μg/mL streptomycin (Thermo Fisher Scientific) and 1 ng/mL mouse interleukin-3 (mIL-3) (CST).
Upon evaluation of cell growth inhibitory activity, the Ba/F3-HER2insYVMA cells were suspended in an RPMI-1640 medium supplemented with 10% FBS, 100 U/mL penicillin, and 100 μg/mL streptomycin. The cell suspension was seeded in each well of a 96-well flat-bottom microplate, and was then cultured in a 5% carbon dioxide gas-containing culture vessel at 37° C. for 1 day. The compound of the present invention was dissolved in DMSO, and was then diluted with DMSO or the medium used in the suspension of the cells. The obtained solution was then added to each well of the culture plate, so that the final concentration of DMSO became 0.2%. The obtained mixture was further cultured in the 5% carbon dioxide gas-containing culture vessel at 37° C. for 3 days. After completion of the culture for 3 days in the presence of the compound, the cells were counted using CellTiter-Glo 2.0 (manufactured by Promega), and the growth inhibition percentage was then calculated according to the following equation. […] Growth inhibitory percentage (%)=(C−T)/(C)×100 T: Emission intensity from the well to which the test compound was added C: Emission intensity from the well to which the test compound was not added

Series [1] is described as follows: Evaluation of oral absorbability. The class given is in vivo, BALB/cA mice. As to conditions: oral 50 mg/kg/day; for AUC(0-t): mouse, plasma, BALB/cA mice. As for the experimental part:
The compound of the present invention was suspended or dissolved in 0.5% HPMC aqueous solution and 0.1 N hydrochloric acid, and the obtained suspension or solution was orally administered to BALB/cA mice (CLEA Japan, Inc.) at a dose of 50 mg/kg/day. At 0.5, 1, 2, 4 and 6 hours after completion of the oral administration, blood was collected from the facial vein over time, so as to obtain plasma. The concentration of the compound in the obtained plasma was measured by LC-MS/MS, and the oral absorbability of the present compound was evaluated.

Another series deals with SK-BR-3 cells. Kind of series: Growth inhibitory activity against HER2 expressing cell line SK-BR-3. The class given is cell-based. Particulars: Homo sapiens, SK-BR-3, 72 h; 3 days, CellTiter-Glo 2.0. The method, then:
SK-BR-3 cells as a HER2 overexpressing human breast cancer cell line were suspended in a McCoy's 5a medium (manufactured by Life Technologies) supplemented with 10% fetal bovine serum. The cell suspension was seeded in each well of a 384-well flat-bottom microplate, and was then cultured in a 5% carbon dioxide gas-containing culture vessel at 37° C. for 1 day. Thereafter, the compound of the present invention was dissolved in DMSO, and the compound was diluted to 500 times the final concentration in DMSO. The compound in the DMSO solution was diluted with DMSO solution or the medium used in the suspension of the cells, and the obtained solution was then added to each well of the culture plate so that the final concentration of DMSO was 0.2%. The obtained mixture was further cultured in the 5% carbon dioxide gas-containing culture vessel at 37° C. for 3 days. After completion of the culture for 3 days in the presence of the compound, the cells were counted using CellTiter-Glo 2.0 (manufactured by Promega), and the growth inhibition percentage was then calculated according to the following equation. […] Growth inhibitory percentage (%)=(C−T)/(C)×100 T: Emission intensity from the well to which the test compound was added C: Emission intensity from the well to which the test compound was not added
(In general: ATP-based viability assays read luminescence as a measure of living cells.)

For the next series, the system named is NCI-N87 cells. The series is described as follows: Growth inhibitory activity against HER2 expressing cell line NCI-N87. The class given is cell-based. Particulars: Homo sapiens, NCI-N87, 72 h; 3 days, CellTiter-Glo 2.0. The method, then:
NCI-N87 cells as a HER2 overexpressing human stomach cancer cell line (American Type Culture Collection, Cat No. ATCC (registered trademark) CRL-5822) were suspended in an RPMI640 medium (Wako Pure Chemical Industries, Ltd.) supplemented with 10% fetal bovine serum. Subsequently, the cell suspension was seeded in each well of a 96-well flat-bottom microplate, and was then cultured in a 5% carbon dioxide gas-containing culture vessel at 37° C. for 1 day. Thereafter, the compound of the present invention was dissolved in DMSO, and the compound was diluted to 1000 times the final concentration in DMSO. The compound in the DMSO solution was diluted with the medium used in the suspension of the cells, and the obtained solution was then added to each well of the culture plate, so that the final concentration of DMSO became 0.1%. Regarding a control well, DMSO was diluted with the medium used in the suspension of the cells, and the obtained solution was then added to each well of the culture plate, so that the final concentration of DMSO became 0.1%. After addition of a drug solution, the obtained mixture was further cultured in the 5% carbon dioxide gas-containing culture vessel at 37° C. for 3 days. After completion of the culture for 3 days in the presence of the compound, the cells were counted using CellTiter-Glo 2.0 (manufactured by Promega) in accordance with the protocols recommended by Promega. The growth inhibition percentage was calculated according to the following equation. […] Growth inhibitory percentage (%)=(C−T)/(C)×100 T: Emission intensity from the well to which the test compound was added C: Emission intensity from the well to which the test compound was not added

For the next series, the target named is T1, HER2 (Homo sapiens, UniProt P04626).
T1 construct: purchased Carna Biosciences, Inc
T1 sequence (P04626 23-1255): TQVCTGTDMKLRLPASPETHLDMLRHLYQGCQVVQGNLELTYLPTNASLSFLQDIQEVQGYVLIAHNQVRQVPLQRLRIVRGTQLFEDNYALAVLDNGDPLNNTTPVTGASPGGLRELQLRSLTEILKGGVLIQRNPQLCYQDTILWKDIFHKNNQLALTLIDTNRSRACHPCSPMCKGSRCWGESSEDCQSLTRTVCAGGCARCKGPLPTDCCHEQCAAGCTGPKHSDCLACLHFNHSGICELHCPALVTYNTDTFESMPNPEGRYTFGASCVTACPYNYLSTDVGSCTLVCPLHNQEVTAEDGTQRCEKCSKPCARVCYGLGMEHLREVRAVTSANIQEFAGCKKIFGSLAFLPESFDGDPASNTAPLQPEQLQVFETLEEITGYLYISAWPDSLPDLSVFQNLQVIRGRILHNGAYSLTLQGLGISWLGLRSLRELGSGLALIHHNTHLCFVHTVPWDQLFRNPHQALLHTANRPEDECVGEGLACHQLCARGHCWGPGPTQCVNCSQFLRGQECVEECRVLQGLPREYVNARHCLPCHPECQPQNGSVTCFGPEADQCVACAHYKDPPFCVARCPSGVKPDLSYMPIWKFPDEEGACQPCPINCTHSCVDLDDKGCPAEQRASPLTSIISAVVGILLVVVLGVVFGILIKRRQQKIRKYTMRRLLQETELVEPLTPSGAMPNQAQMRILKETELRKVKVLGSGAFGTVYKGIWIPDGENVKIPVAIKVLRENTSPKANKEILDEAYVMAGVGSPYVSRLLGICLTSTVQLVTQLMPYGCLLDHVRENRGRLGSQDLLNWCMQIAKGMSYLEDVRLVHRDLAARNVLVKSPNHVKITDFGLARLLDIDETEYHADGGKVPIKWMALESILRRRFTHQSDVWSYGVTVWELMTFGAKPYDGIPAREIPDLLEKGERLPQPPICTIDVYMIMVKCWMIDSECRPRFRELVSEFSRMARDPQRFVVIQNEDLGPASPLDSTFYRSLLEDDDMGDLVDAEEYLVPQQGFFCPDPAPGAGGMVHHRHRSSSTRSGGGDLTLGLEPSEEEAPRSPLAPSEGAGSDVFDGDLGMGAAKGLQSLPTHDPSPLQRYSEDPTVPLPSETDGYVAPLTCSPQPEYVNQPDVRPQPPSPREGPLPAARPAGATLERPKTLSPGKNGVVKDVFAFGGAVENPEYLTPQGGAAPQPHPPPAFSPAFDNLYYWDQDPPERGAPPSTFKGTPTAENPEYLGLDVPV
The series is described as follows: Inhibitory effect (in vitro) on HER2 phosphorylation activity. The class given is biochemical. As to conditions: recombinant human HER2, ATP 5 μM, 25° C. 30 minutes. The text has this: In order to determine conditions for a method of measuring the in vitro inhibitory activity of a compound against HER2 phosphorylation activity, based on the report regarding a HER2 kinase reaction using, as a substrate, a peptide having the same sequence (5-FAM-[…]-CONH2) as that of ProfilerPro Peptide 22 of PerkinElmer (Xie H et al., PLoS One. 2011; 6(7): e21487), ProfilerPro Peptide 22 was used as a substrate. A purified recombinant human HER2 protein used in the present test was purchased from Carna Biosciences, Inc. Upon the measurement of the inhibitory activity of the compound, first, the compound of the present invention was diluted stepwise with dimethyl sulfoxide (DMSO). […] To the reaction solution, EDTA was added to a final concentration of 30 mM, so as to terminate the reaction. Finally, using LabChip (registered trademark) EZ Reader II (PerkinElmer), an unphosphorylated substrate peptide (S) and a phosphorylated peptide (P) were separated and detected according to microchannel capillary electrophoresis.

In series [2] the target is HER2 exon 20 insertion mutant (HER2ex20insYVMA, A775_G776insYVMA) (Homo sapiens, UniProt P04626, DUP772-775). Kind of series: Inhibitory action (in vitro) against HER2 exon 20 insertion mutant phosphorylation activity. It counts as biochemical. Particulars: 30 min pre-incubation, ATP 200 μM, 25° C. 220 minutes. The text has this: In order to determine conditions for a method of measuring the in vitro inhibitory activity of a compound against HER2 exon 20 insertion mutant phosphorylation activity, as in the case of HER2, ProfilerPro Peptide 22 was used as a substrate. A purified recombinant human HER2 exon 20 insertion mutant (A775_G776insYVMA) protein is shown in SEQ ID NO: 7, and was purchased from SignalChem. Upon the measurement of the inhibitory activity of the compound, first, the compound of the present invention was diluted stepwise with dimethyl sulfoxide (DMSO). Subsequently, the HER2 exon 20 insertion mutant protein and the compound of the present invention in DMSO solution (final concentration of DMSO: 5%) were added into a buffer for the kinase reaction (13.5 mM Tris (pH 7.5), 2 mM dithiothreitol, and 0.009% Tween 20), and the obtained mixture was then pre-incubated at 25° C. for 30 minutes. Thereafter, the substrate peptide (final concentration: 1 μM), manganese chloride (final concentration: 25 mM), magnesium chloride (final concentration: 20 mM), and ATP (final concentration: 200 μM) were added into the reaction mixture, and the thus obtained mixture was then incubated at 25° C. for 220 minutes, so that the kinase reaction was carried out. To the reaction solution, EDTA was added to a final concentration of 30 mM, so as to terminate the reaction. Finally, using LabChip (registered trademark) EZ Reader II (PerkinElmer), an unphosphorylated substrate peptide (S) and a phosphorylated peptide (P) were separated and detected according to microchannel capillary electrophoresis.
HER2 exon 20 insertion mutant (HER2ex20insYVMA, A775_G776insYVMA), sequence (P04626 with tags, fused parts or gaps DUP772-775): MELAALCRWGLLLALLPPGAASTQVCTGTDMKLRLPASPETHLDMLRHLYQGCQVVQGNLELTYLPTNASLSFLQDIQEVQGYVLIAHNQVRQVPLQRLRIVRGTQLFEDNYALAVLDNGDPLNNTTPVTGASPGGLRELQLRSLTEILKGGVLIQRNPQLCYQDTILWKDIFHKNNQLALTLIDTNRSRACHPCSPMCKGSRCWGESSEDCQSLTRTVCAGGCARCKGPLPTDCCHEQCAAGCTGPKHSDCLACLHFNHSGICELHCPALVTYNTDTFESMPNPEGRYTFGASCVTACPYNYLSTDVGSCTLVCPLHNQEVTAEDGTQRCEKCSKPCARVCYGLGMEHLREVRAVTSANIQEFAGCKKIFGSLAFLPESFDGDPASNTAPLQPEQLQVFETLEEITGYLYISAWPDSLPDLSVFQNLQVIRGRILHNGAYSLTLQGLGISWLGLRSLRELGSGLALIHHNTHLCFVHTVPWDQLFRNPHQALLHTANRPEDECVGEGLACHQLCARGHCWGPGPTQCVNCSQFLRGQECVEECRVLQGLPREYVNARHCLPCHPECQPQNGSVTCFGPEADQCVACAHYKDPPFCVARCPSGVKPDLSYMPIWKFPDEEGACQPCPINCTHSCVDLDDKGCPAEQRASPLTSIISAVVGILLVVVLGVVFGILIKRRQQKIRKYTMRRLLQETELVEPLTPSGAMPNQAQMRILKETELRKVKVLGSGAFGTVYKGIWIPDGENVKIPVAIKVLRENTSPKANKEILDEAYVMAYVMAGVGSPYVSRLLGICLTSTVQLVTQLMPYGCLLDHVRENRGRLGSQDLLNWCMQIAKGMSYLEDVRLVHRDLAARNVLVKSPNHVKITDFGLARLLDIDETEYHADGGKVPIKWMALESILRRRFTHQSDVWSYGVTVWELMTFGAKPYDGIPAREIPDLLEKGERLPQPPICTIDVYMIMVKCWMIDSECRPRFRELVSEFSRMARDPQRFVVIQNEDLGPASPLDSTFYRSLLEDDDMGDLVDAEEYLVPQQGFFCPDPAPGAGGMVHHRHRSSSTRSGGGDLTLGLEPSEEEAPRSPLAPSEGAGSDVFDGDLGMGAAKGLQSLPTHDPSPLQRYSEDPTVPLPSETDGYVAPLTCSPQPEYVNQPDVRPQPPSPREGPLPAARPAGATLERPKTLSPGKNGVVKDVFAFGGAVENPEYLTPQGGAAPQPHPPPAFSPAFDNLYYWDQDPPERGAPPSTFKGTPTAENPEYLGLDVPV

Series [3] can be described thus: Evaluation of brain penetration properties. It counts as in vivo, BALB/cA mice. Particulars: 0.5 hours after oral 50 mg/kg/day.

Bounds are passed on as bounds.

Ba/F3-HER2insYVMA cells, sequence (P04626 with tags, fused parts or gaps DUP772-775): as above

A word on the AUC(0-t): it is the area under the concentration-time curve up to a stated or last time point. One may read the IC50 as the concentration that inhibits the measured activity by half. As to `C=CC(=O)N1C[C@H](n2c(C#CC3CC3)c(C(=O)N[C@H](C)c3ccccc3)c3c(N)ncnc32)C[C@@H]1COCC` [Example 19, 7-((3R,5R)-1-acryloyl-5-(ethoxymethyl)pyrrolidin-3-yl)-4-amino-6-(cyclopropylethynyl)-N—((R)-1-phenylethyl)-7H-pyrrolo[2,3-d]pyrimidine-5-carboxamide], the GI50 at Ba/F3-HER2insYVMA cells worked out at 50 nM. Further, in series [1], the AUC(0-t) was determined as 6.1 µM·h. Also, the IC50 in the series on SK-BR-3 cells amounted to 17 nM; in the series on NCI-N87 cells it was 7.9 nM; at HER2 it was 4.4 nM; in series [2] it was 1.1 nM.

In the case of `C=CC(=O)N1C[C@H](n2nc(C(=O)Nc3ccc(CC(=O)N(C)C)c(C)c3C)c3c(N)ncnc32)C[C@@H]1C` [Comp. Ex. 2, 1-((3R,5S)-1-acryloyl-5-methylpyrrolidin-3-yl)-4-amino-N-(4-(2-(dimethylamino)-2-oxoethyl)-2,3-dimethylphenyl)-1H-pyrazolo[3,4-d]pyrimidine-3-carboxamide, reference compound], the GI50 on Ba/F3-HER2insYVMA cells was 1900 nM. The molecule also registered an AUC(0-t) in series [1] of 1.5 µM·h. For the same molecule, the “oral absorbability attenuated versus the compound of the present invention” value in series [1] (mice) is given as “more than 4 times”. The IC50 was 25 nM in the series on SK-BR-3 cells, 19 nM at HER2 and 4.4 nM in series [2]. The “brain concentration attenuated versus the compound of the present invention” value in series [3] (mice) is given as “more than 80 times”. In addition, the Kp at 0.5 h in series [3] (mouse, brain, BALB/cA mice, read-out: Kp value (Compound concentration in brain/plasma)) stood at 0.005. Also, in series [3] (mouse, plasma, BALB/cA mice, read-out: Compound concentration in plasma), the concentration at 0.5 h worked out at 1600 nM.

`C=CC(=O)N1C[C@H](n2c(C#CC)c(C(=O)N(C)[C@H](C)c3ccccc3)c3c(N)ncnc32)C[C@@H]1C` [Comp. Ex. 5, 7-((3R,5S)-1-acryloyl-5-methylpyrrolidin-3-yl)-4-amino-N-methyl-N—((R)-1-phenylethyl)-6-(prop-1-yn-1-yl)-7H-pyrrolo[2,3-d]pyrimidine-5-carboxamide]: the GI50 at Ba/F3-HER2insYVMA cells came to 1300 nM. Further, the IC50 in the series on SK-BR-3 cells was found to be 400 nM; on HER2, 130 nM; in series [2], 14 nM.

As to `CC#Cc1c(C(=O)N[C@H](C)c2ccccc2)c2c(N)ncnc2n1[C@@H]1C[C@H](C)N(C(=O)/C=C/C)C1` [Comp. Ex. 6, 4-Amino-7-((3R,5S)-1-((E)-but-2-enoyl)-5-methylpyrrolidin-3-yl)-N—((R)-1-phenylethyl)-6-(prop-1-yn-1-yl)-7H-pyrrolo[2,3-d]pyrimidine-5-carboxamide], on Ba/F3-HER2insYVMA cells, the GI50 stood at 4100 nM. Besides, the IC50 with SK-BR-3 cells is 3000 nM; at HER2, 390 nM; in series [2] it was greater than 10000 nM.

Consider `C=CC(=O)N1C[C@H](n2c(C#CC)c(C(=O)NCC3CCCCC3)c3c(N)ncnc32)C[C@@H]1C` [Comp. Ex. 3, 7-((3R,5S)-1-acryloyl-5-methylpyrrolidin-3-yl)-4-amino-N-(cyclohexylmethyl)-6-(prop-1-yn-1-yl)-7H-pyrrolo[2,3-d]pyrimidine-5-carboxamide], for which, on Ba/F3-HER2insYVMA cells, the GI50 was determined as 3400 nM. For the same molecule, the IC50 stood at 4300 nM in the series with SK-BR-3 cells, 630 nM at HER2 and 380 nM in series [2].

`CC#Cc1c(C(=O)Nc2ccc(COC)cc2)c2c(N)ncnc2n1C1(C)CC1` [Comp. Ex. 1, 4-Amino-N-(4-(methoxymethyl)phenyl)-7-(1-methylcyclopropyl)-6-(prop-1-yn-1-yl)-7H-pyrrolo[2,3-d]pyrimidine-5-carboxamide, reference compound]: the GI50 on Ba/F3-HER2insYVMA cells was greater than 10000 nM. Moreover, the IC50 (in the series on SK-BR-3 cells; at HER2; in series [2]) was greater than 10000 nM in each case.

On to `C=CC(=O)N1C[C@H](n2c(C#CC)c(C(=O)NCc3ccccc3C)c3c(N)ncnc32)C[C@@H]1C` [Comp. Ex. 4, 7-((3R,5S)-1-acryloyl-5-methylpyrrolidin-3-yl)-4-amino-N-(2-methylbenzyl)-6-(prop-1-yn-1-yl)-7H-pyrrolo[2,3-d]pyrimidine-5-carboxamide], for which, at Ba/F3-HER2insYVMA cells, the GI50 worked out at 900 nM. Further, the IC50 in the series on SK-BR-3 cells worked out at 340 nM; at HER2, 54 nM; in series [2], 11 nM.

The values above are taken from US11078207B2, “Substituted pyrrolo[2,3-d]pyrimidines as HER2 inhibitors” (TAIHO PHARMACEUTICAL CO., LTD., priority 2019, dated 2021).
